{"source": "patent US20020137929A1", "about": "“1 - (3-heterocyclylphenyl) isothiourea, -isourea, -guanidine and -amidine herbicidal agents” (Intellectual Property Department, BASF Aktiengesellschaft, priority 1998, published 2002)", "key": {"[1]": {"tested_on": "ECHORC (Watergrass (Calif.))", "assay": "Postemergence weed control under flooded paddy conditions", "type": "in vivo, Echinochloa oryzoides", "settings": "postemergence weeds, 3-4 weeks after treatment", "procedure,_shortened": "(§1)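 With weeds 3 to 5 cm tall and rice at the 1.5 to 2.5 leaf stage, containers were flooded and water held 1.5 to 3 cm above soil. Compounds in 50/50 v/v aqueous/acetone went into the flood water at about 0.0313 to 0.500 kg/ha a.i. Effects were visually rated 0–9 against controls after three to four weeks in the greenhouse.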"}, "[2]": {"tested_on": "SETVI (Foxtail, Green)", "assay": "Postemergence herbicidal evaluation", "type": "in vivo, Setaria viridis", "settings": "postemergence", "procedure,_shortened": "(§2)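 Herbicidal effect was judged by eye on a 0–9 scale covering stand, vigor, deformity, size and chlorosis, compared with controls, four to five weeks after seedlings about two weeks old were sprayed (40 psi, ~0.0156–0.500 kg/ha).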"}, "[3]": {"tested_on": "ZEAMX (Corn, Field)", "assay": "Postemergence herbicidal evaluation", "type": "in vivo, Zea mays", "settings": "postemergence", "procedure,_shortened": "as §2"}, "[4]": {"tested_on": "GLXMAW (Soybean, Williams)", "assay": "Postemergence herbicidal evaluation", "type": "in vivo, Glycine max, (L.) Merr. cv Williams", "settings": "postemergence", "procedure,_shortened": "as §2"}, "[5]": {"tested_on": "ABUTH (Velvetleaf)", "assay": "Postemergence herbicidal evaluation", "type": "in vivo, Abutilon theophrasti", "settings": "postemergence", "procedure,_shortened": "as §2"}, "[6]": {"tested_on": "IPOHE (Morningglory, Ivyleaf)", "assay": "Postemergence herbicidal evaluation", "type": "in vivo, Ipomoea hederacea", "settings": "postemergence", "procedure,_shortened": "as §2"}, "[7]": {"tested_on": "ECHCG (Barnyardgrass)", "assay": "Preemergence herbicidal evaluation", "type": "in vivo, Echinochloa crus-galli", "settings": "rated 4-5 weeks after treatment", "procedure,_shortened": "(§3)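 Rating at 4–5 wk post-spray on a 0–9 visual scale vs control. Application: aqueous acetone, ~0.0156–0.500 kg/ha, to soil surface after seeding, preemergence.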"}, "[8]": {"tested_on": "IPOHE (Morningglory, Ivyleaf)", "assay": "Preemergence herbicidal evaluation", "type": "in vivo, Ipomoea hederacea", "settings": "rated 4-5 weeks after treatment", "procedure,_shortened": "as §3"}, "[9]": {"tested_on": "CASOB (Sicklepod)", "assay": "Preemergence herbicidal evaluation", "type": "in vivo, Cassia obtusifolia", "settings": "rated 4-5 weeks after treatment", "procedure,_shortened": "as §3"}, "[10]": {"tested_on": "CYPSE (Flatsedge)", "assay": "Preemergence weed control under flooded paddy conditions", "type": "in vivo, Cyperus serotinus", "settings": "rated 3-4 weeks after treatment", "procedure,_shortened": "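Seeds or propagules sown in silt loam kept flooded 1.5-3 cm; compounds in 50/50 acetone/water pipetted into flood water at about 0.0313 to 0.500 kg/ha. Greenhouse; visual 0-9 rating versus untreated control 3-4 weeks after treatment.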"}, "[11]": {"tested_on": "CYPIR (Rice Flatsedge)", "assay": "Postemergence weed control under flooded paddy conditions", "type": "in vivo, Cyperus iria", "settings": "postemergence weeds, 3-4 weeks after treatment", "procedure,_shortened": "as §1"}, "[12]": {"tested_on": "ABUTH (Velvetleaf)", "assay": "Preemergence herbicidal evaluation", "type": "in vivo, Abutilon theophrasti", "settings": "rated 4-5 weeks after treatment", "procedure,_shortened": "as §3"}, "[13]": {"tested_on": "AMBEL (Ragweed, Common)", "assay": "Preemergence herbicidal evaluation", "type": "in vivo, Ambrosia artemisifolia", "settings": "rated 4-5 weeks after treatment", "procedure,_shortened": "as §3"}, "[14]": {"tested_on": "ECHORC (Watergrass (Calif.))", "assay": "Preemergence weed control under flooded paddy conditions", "type": "in vivo, Echinochloa oryzoides", "settings": "rated 3-4 weeks after treatment", "procedure,_shortened": "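Flooded-pot preemergence screen with silt loam and seeds in the upper 0.5 cm. Dose about 0.0313 to 0.500 kg/ha, delivered into flood water; visual 0-9 score after 3 to 4 weeks.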"}}, "data": [{"smiles": "CN(C)N1C(=O)CSC1=Nc1cc(-n2c(=O)cc(C(F)(F)F)n(C)c2=O)c(F)cc1Cl", "note": "[Compound 23, 3-{4-Chloro-5-{[3-(dimethylamino)-4-oxo-2-thiazolidinylidine]amino}-2-fluorophenyl}-1-methyl-6-(trifluoromethyl)-2,4(1H,3H)-pyrimidinedione]", "values": [{"measurement": "Herbicidal rating ECHORC", "setting": "[1]; rate 0.1160 kg/ha", "result": 4.0}, {"measurement": "Herbicidal rating ECHORC", "setting": "[1]; rate 0.2310 kg/ha", "result": 4.0}, {"measurement": "Herbicidal rating ECHORC", "setting": "[1]; rate 0.4630 kg/ha", "result": 4.0}, {"measurement": "SETVI herbicidal rating", "setting": "[2]; rate 0.0158 kg/ha", "result": 2.0}, {"measurement": "SETVI herbicidal rating", "setting": "[2]; rate 0.0315 kg/ha", "result": 4.0}, {"measurement": "SETVI herbicidal rating", "setting": "[2]; rate 0.0630 kg/ha", "result": 4.0}, {"measurement": "ZEAMX herbicidal rating", "setting": "[3]; rate 0.0158 kg/ha", "result": 3.0}, {"measurement": "ZEAMX herbicidal rating", "setting": "[3]; rate 0.0315 kg/ha", "result": 3.5}, {"measurement": "ZEAMX herbicidal rating", "setting": "[3]; rate 0.0630 kg/ha", "result": 5.0}, {"measurement": "GLXMAW herbicidal rating", "setting": "[4]; rate 0.0158 kg/ha", "result": 3.0}, {"measurement": "GLXMAW herbicidal rating", "setting": "[4]; rate 0.0315 kg/ha", "result": 3.5}, {"measurement": "GLXMAW herbicidal rating", "setting": "[4]; rate 0.0630 kg/ha", "result": 5.0}, {"measurement": "ABUTH herbicidal rating", "setting": "[5]; rate 0.0158 kg/ha", "result": 3.0}, {"measurement": "ABUTH herbicidal rating", "setting": "[5]; rate 0.0315 kg/ha", "result": 4.0}, {"measurement": "ABUTH herbicidal rating", "setting": "[5]; rate 0.0630 kg/ha", "result": 5.0}, {"measurement": "IPOHE herbicidal rating", "setting": "[6]; rate 0.0158 kg/ha", "result": 4.0}, {"measurement": "IPOHE herbicidal rating", "setting": "[6]; rate 0.0315 kg/ha", "result": 9.0}, {"measurement": "IPOHE herbicidal rating", "setting": "[6]; rate 0.0630 kg/ha", "result": 9.0}, {"measurement": "ECHCG preemergence herbicidal rating", "setting": "[7]; rate 0.0156 kg/ha", "result": 0.0}, {"measurement": "ECHCG preemergence herbicidal rating", "setting": "[7]; rate 0.0313 kg/ha", "result": 1.0}, {"measurement": "ECHCG preemergence herbicidal rating", "setting": "[7]; rate 0.0625 kg/ha", "result": 2.0}, {"measurement": "ECHCG preemergence herbicidal rating", "setting": "[7]; rate 0.1250 kg/ha", "result": 4.0}, {"measurement": "ECHCG preemergence herbicidal rating", "setting": "[7]; rate 0.2500 kg/ha", "result": 6.0}, {"measurement": "IPOHE preemergence herbicidal rating", "setting": "[8]; rate 0.0156 kg/ha", "result": 0.0}, {"measurement": "IPOHE preemergence herbicidal rating", "setting": "[8]; rate 0.0313 kg/ha", "result": 0.0}, {"measurement": "IPOHE preemergence herbicidal rating", "setting": "[8]; rate 0.0625 kg/ha", "result": 1.0}, {"measurement": "IPOHE preemergence herbicidal rating", "setting": "[8]; rate 0.1250 kg/ha", "result": 5.0}, {"measurement": "IPOHE preemergence herbicidal rating", "setting": "[8]; rate 0.2500 kg/ha", "result": 9.0}, {"measurement": "CASOB preemergence herbicidal rating", "setting": "[9]; rate 0.0156 kg/ha", "result": 0.0}, {"measurement": "CASOB preemergence herbicidal rating", "setting": "[9]; rate 0.0313 kg/ha", "result": 0.0}, {"measurement": "CASOB preemergence herbicidal rating", "setting": "[9]; rate 0.0625 kg/ha", "result": 1.0}, {"measurement": "CASOB preemergence herbicidal rating", "setting": "[9]; rate 0.1250 kg/ha", "result": 2.0}, {"measurement": "CASOB preemergence herbicidal rating", "setting": "[9]; rate 0.2500 kg/ha", "result": 5.0}, {"measurement": "Herbicidal rating CYPSE", "setting": "[10]; 0.1160 kg/ha", "result": 0.0}, {"measurement": "Herbicidal rating CYPSE", "setting": "[10]; 0.2310 kg/ha", "result": 0.0}, {"measurement": "Herbicidal rating CYPSE", "setting": "[10]; 0.4630 kg/ha", "result": 0.0}, {"measurement": "Herbicidal rating CYPIR", "setting": "[11]; rate 0.1160 kg/ha", "result": 0.0}, {"measurement": "Herbicidal rating CYPIR", "setting": "[11]; rate 0.2310 kg/ha", "result": 0.0}, {"measurement": "Herbicidal rating CYPIR", "setting": "[11]; rate 0.4630 kg/ha", "result": 0.0}, {"measurement": "ABUTH preemergence herbicidal rating", "setting": "[12]; rate 0.0156 kg/ha", "result": 0.0}, {"measurement": "ABUTH preemergence herbicidal rating", "setting": "[12]; rate 0.0313 kg/ha", "result": 1.0}, {"measurement": "ABUTH preemergence herbicidal rating", "setting": "[12]; rate 0.0625 kg/ha", "result": 9.0}, {"measurement": "ABUTH preemergence herbicidal rating", "setting": "[12]; rate 0.1250 kg/ha", "result": 9.0}, {"measurement": "ABUTH preemergence herbicidal rating", "setting": "[12]; rate 0.2500 kg/ha", "result": 9.0}, {"measurement": "AMBEL preemergence herbicidal rating", "setting": "[13]; rate 0.0156 kg/ha", "result": 0.0}, {"measurement": "AMBEL preemergence herbicidal rating", "setting": "[13]; rate 0.0313 kg/ha", "result": 0.0}, {"measurement": "AMBEL preemergence herbicidal rating", "setting": "[13]; rate 0.0625 kg/ha", "result": 3.0}, {"measurement": "AMBEL preemergence herbicidal rating", "setting": "[13]; rate 0.1250 kg/ha", "result": 6.0}, {"measurement": "AMBEL preemergence herbicidal rating", "setting": "[13]; rate 0.2500 kg/ha", "result": 7.0}, {"measurement": "Herbicidal rating ECHORC", "setting": "[14]; 0.1160 kg/ha", "result": 4.0}, {"measurement": "Herbicidal rating ECHORC", "setting": "[14]; 0.2310 kg/ha", "result": 4.0}, {"measurement": "Herbicidal rating ECHORC", "setting": "[14]; 0.4630 kg/ha", "result": 4.0}]}]}
